{"source": "patent US11401270B2", "about": "“Alcoxyamino derivatives for treating pain and pain related conditions” (ESTEVE PHARMACEUTICALS, S.A., priority 2017, dated 2022)", "molecular_target": "Human α2δ-1 subunit of Cav2.2 calcium channel (Homo sapiens (Human), UniProt P54289)", "sequence (P54289 25-1103)": "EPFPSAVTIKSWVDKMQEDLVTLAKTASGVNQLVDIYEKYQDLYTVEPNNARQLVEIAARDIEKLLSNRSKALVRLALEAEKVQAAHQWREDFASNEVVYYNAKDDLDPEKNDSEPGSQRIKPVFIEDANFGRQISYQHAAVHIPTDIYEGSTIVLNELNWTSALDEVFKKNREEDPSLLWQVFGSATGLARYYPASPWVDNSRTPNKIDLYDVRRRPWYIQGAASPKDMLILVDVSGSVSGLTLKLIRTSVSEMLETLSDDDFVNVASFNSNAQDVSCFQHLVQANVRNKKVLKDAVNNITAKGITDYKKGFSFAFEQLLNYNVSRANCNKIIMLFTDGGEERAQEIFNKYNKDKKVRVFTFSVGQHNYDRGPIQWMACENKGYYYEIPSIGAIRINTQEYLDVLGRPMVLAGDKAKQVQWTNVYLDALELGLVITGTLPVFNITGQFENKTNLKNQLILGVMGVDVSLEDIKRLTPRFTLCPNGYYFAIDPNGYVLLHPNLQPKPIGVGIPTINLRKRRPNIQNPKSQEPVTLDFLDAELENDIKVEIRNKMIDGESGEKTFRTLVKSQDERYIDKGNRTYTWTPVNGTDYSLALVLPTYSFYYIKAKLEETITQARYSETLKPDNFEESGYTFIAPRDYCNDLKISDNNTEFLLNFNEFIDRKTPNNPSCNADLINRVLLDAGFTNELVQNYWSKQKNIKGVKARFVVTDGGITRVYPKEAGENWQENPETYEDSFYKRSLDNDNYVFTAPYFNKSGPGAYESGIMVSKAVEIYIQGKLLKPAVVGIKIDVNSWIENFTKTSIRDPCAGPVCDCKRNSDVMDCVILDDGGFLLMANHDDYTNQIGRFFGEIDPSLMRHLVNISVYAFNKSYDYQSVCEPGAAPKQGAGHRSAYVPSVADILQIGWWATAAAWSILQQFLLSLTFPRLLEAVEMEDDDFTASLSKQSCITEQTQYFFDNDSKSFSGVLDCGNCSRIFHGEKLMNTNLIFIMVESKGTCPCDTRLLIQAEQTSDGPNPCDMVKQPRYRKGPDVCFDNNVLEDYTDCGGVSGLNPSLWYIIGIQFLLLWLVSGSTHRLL", "assay": "Binding Assay to Human α2δ-1 Subunit of Cav2.2 Calcium Channel", "settings": "human α2δ-1 enriched membranes, 15 nM [3H]-Gabapentin, read-out: Ki(nM) alpha2delta Hum", "procedure": "Binding Assay to Human α2δ-1 Subunit of Cav2.2 Calcium Channel.\nNSB (non specific binding) was measured by adding 10 μM pregabalin. The binding of the test compound was measured in five different concentrations. After 60 min incubation at 27° C., binding reaction was terminated by filtering through Multiscreen GF/C (Millipore) presoaked in 0.5% polyethyleneimine in Vacuum Manifold Station, followed by 3 washes with ice-cold filtration buffer containing 50 mM Tris-HCl, pH 7.4.\nFilter plates were dried at 60° C. for 1 hour and 30 μl of scintillation cocktail were added to each well before radioactivity reading.", "note": "Read-outs that look alike come from different tables or passages of the source."}
{"smiles": "CNCC[C@H](Oc1ccc(CN2CCN(C)c3nc(N(C)C)ccc3C2=O)cc1)c1cccs1", "note": "[Example 95, (S)-8-(dimethylamino)-1-methyl-4-(4-(3-(methylamino)-1-(thiophen-2-yl)propoxy)benzyl)-1,2,3.4-tetrahydro-5H-pyrido[2,3-e][1,4]diazepin-5-one]", "values": [{"measurement": "Ki", "setting": "Table 1", "result": "500 to 3000", "unit": "nM"}]}
{"smiles": "CNCC[C@@H](OCc1cccc(N2CCN(C)c3ccccc3C2=O)c1)c1ccccc1", "note": "[Example 47, (R)-1-methyl-4-(3-((3-(methylamino)-1-phenylpropoxy)methyl)phenyl)-1,2,3,4-tetrahydro-5H-benzo[e][1,4]diazepin-5-one]", "values": [{"measurement": "Ki", "setting": "Table 1", "result": "500 to 3000", "unit": "nM"}]}
{"smiles": "CNCC[C@H](Oc1ccc(CN2CCN(C)c3ncc(F)cc3C2=O)c(C)c1)c1cccs1", "note": "[Example 125, (S)-7-fluoro-1-methyl-4-(2-methyl-4-(3-(methylamino)-1-(thiophen-2-yl)propoxy)benzyl)-1,2,3,4-tetrahydro-5H-pyrido[2,3-e][1,4]diazepin-5-one]", "values": [{"measurement": "Ki", "setting": "Table 1", "result": "< 100", "unit": "nM"}]}
{"smiles": "CNCCC(OCc1cccc(N2CCN(C)c3ccccc3C2=O)c1)c1cccc(F)c1", "note": "(centres unmarked) [Example 40, 4-(3-((1-(3-Fluorophenyl)-3-(methylamino)propoxy)methyl)phenyl)-1-methyl-1,2,3,4-tetrahydro-5H-benzo[e][1,4]diazepin-5-one]", "values": [{"measurement": "Ki", "setting": "Table 1", "result": "500 to 3000", "unit": "nM"}]}
{"smiles": "CNCCC(Oc1ccc(CN2CCN(C)c3ccccc3C2=O)cc1)c1ccccc1", "note": "(centres unmarked) [Example 112, 1-Methyl-4-(4-(3-(methylamino)-1-phenylpropoxy)benzyl)-1,2,3,4-tetrahydro-5H-benzo[e][1,4]diazepin-5-one]", "values": [{"measurement": "Ki", "setting": "Table 1", "result": "> 3000", "unit": "nM"}]}
{"smiles": "CNCC(OCc1ccc(CN2CCN(C)c3ccccc3C2=O)cc1)c1ccccc1", "note": "(centres unmarked) [Example 109, 1-Methyl-4-(4-((2-(methylamino)-1-phenylethoxy)methyl)benzyl)-1,2,3,4-tetrahydro-5H-benzo[e][1,4]diazepin-5-one]", "values": [{"measurement": "Ki", "setting": "Table 1", "result": "> 3000", "unit": "nM"}]}
{"smiles": "CCNC1CCCN(c2cccc(O[C@@H](CCNC)c3cccs3)c2)C(=O)C1", "note": "(single isomer, unassigned) [Example 118a]", "values": [{"measurement": "Ki", "setting": "Table 1", "result": "500 to 3000", "unit": "nM"}]}
{"smiles": "CNCC[C@@H](Oc1cccc(N2CCN(C)c3nc(C)ccc3C2=O)c1)c1ccsc1", "note": "[Example 79, (R)-1,8-dimethyl-4-(3-(3-(methylamino)-1-(thiophen-3-yl)propoxy)phenyl)-1,2,3,4-tetrahydro-5H-pyrido[2,3-e][1,4]diazepin-5-one]", "values": [{"measurement": "Ki", "setting": "Table 1", "result": "100 to 500", "unit": "nM"}]}
{"smiles": "CNCCC(OCc1cccc(N2CCN(C)c3ncccc3C2=O)c1)c1ccccc1", "note": "(centres unmarked) [Example 45, 1-Methyl-4-(3-((3-(methylamino)-1-phenylpropoxy)methyl)phenyl)-1,2,3,4-tetrahydro-5H-pyrido[2,3-e][1,4]diazepin-5-one]", "values": [{"measurement": "Ki", "setting": "Table 1", "result": "500 to 3000", "unit": "nM"}]}
{"smiles": "CCNC1CCCN(c2cccc(O[C@@H](CCNC)c3cccs3)c2)C(=O)C1", "note": "(single isomer, unassigned) [Example 118b]", "values": [{"measurement": "Ki", "setting": "Table 1", "result": "500 to 3000", "unit": "nM"}]}
{"smiles": "CNCCC(Oc1ccc(CN2CCN(C)CCC2=O)c(F)c1)c1cccs1", "note": "(centres unmarked) [Example 122, 4-(2-Fluoro-4-(3-(methylamino)-1-(thiophen-2-yl)propoxy)benzyl)-1-methyl-1,4-diazepan-5-one]", "values": [{"measurement": "Ki", "setting": "Table 1", "result": "100 to 500", "unit": "nM"}]}
{"smiles": "CNCC[C@H](Oc1ccc(CN2CCN(C)c3ncccc3C2=O)c(C)c1)c1cccs1", "note": "[Example 107, (S)-1-methyl-4-(2-methyl-4-(3-(methylamino)-1-(thiophen-2-yl)propoxy)benzyl)-1,2,3,4-tetrahydro-5H-pyrido[2,3-e][1,4]diazepin-5-one]", "values": [{"measurement": "Ki", "setting": "Table 1", "result": "< 100", "unit": "nM"}]}
{"smiles": "CNCC[C@@H](Oc1ccc(CN2CCN(C)c3ncccc3C2=O)c(F)c1)c1cccc(F)c1", "note": "[Example 135, (R)-4-(2-fluoro-4-(1-(3-fiuorophenyl)-3-(methylamino)propoxy)benzyl)-1-methyl-1,2,3,4-tetrahydro-5H-pyrido[2,3-e][1,4]diazepin-5-one]", "values": [{"measurement": "Ki", "setting": "Table 1", "result": "500 to 3000", "unit": "nM"}]}
{"smiles": "CCNC[C@H]1CC(=O)N(c2cccc(O[C@@H](CCNC)c3ccccc3)c2)CCN1C", "note": "[Example 22, (R)-7-((ethylamino)methyl)-1-methyl-4-(3-((S)-3-(methylamino)-1-phenylpropoxy)phenyl)-1,4-diazepan-5-one]", "values": [{"measurement": "Ki", "setting": "Table 1", "result": "> 3000", "unit": "nM"}]}
{"smiles": "CCNc1ccc2c(n1)N(C)CCN(Cc1ccc(O[C@H](CCNC)c3cccc(F)c3)cc1F)C2=O", "note": "[Example 147, (R)-8-(ethylamino)-4-(2-fluoro-4-(1-(3-fluorophenyl)-3-(methylamino)propoxy)benzyl)-1-methyl-1,2,3,4-tetrahydro-5H-pyrido[2,3-e][1,4]diazepin-5-one]", "values": [{"measurement": "Ki", "setting": "Table 1", "result": "> 3000", "unit": "nM"}]}
{"smiles": "CNCCC(OCc1cccc(N2CCCCCC2=O)c1)c1ccccc1", "note": "(centres unmarked) [Example 35, 1-(3-((3-(Methylamino)-1-phenylpropoxy)methyl)phenyl)azepan-2-one]", "values": [{"measurement": "Ki", "setting": "Table 1", "result": "500 to 3000", "unit": "nM"}]}
{"smiles": "CNCC[C@@H](OCc1cccc(N2CCN(C)c3ccccc3C2=O)c1)c1cccs1", "note": "[Example 14, (R)-1-methyl-4-(3-((3-(methylamino)-1-(thiophen-2-yl)propoxy)methyl)phenyl)-1,2,3,4-tetrahydro-5H-benzo[e][1,4]diazepin-5-one]", "values": [{"measurement": "Ki", "setting": "Table 1", "result": "100 to 500", "unit": "nM"}]}
{"smiles": "CNCC[C@H](OCc1cccc(N2C[C@@H]3CCCN3c3ccccc3C2=O)c1)c1ccccc1", "note": "[Example 30, (S)-5-(3-(((S)-3-(methylamino)-1-phenylpropoxy)methyl)phenyl)-1,2,3,3a,4,5-hexahydro-6H-benzo[f]pyrrolo[1,2-a][1,4]diazepin-6-one]", "values": [{"measurement": "Ki", "setting": "Table 1", "result": "> 3000", "unit": "nM"}]}
{"smiles": "CNCCC(OCc1cccc(N2CCN(C)c3cnccc3C2=O)c1)c1ccccc1", "note": "(centres unmarked) [Example 28, 1-Methyl-4-(3-((3-(methylamino)-1-phenylpropoxy)methyl)phenyl)-1,2,3,4-tetrahydro-5H-pyrido[3,4-e][1,4]diazepin-5-one]", "values": [{"measurement": "Ki", "setting": "Table 1", "result": "500 to 3000", "unit": "nM"}]}
{"smiles": "CNCC[C@H](Oc1ccc(CN2CCCn3cccc3C2=O)cc1)c1cccs1", "note": "[Example 105, (S)-2-(4-(3-(methylamino)-1-(thiophen-2-yl)propoxy)benzyl)-2,3,4,5-tetrahydro-1H-pyrrolo[1,2-a][1,4]diazepin-1-one]", "values": [{"measurement": "Ki", "setting": "Table 1", "result": "500 to 3000", "unit": "nM"}, {"measurement": "Ki", "setting": "Table 2, dual compounds", "result": "500 to 3000", "unit": "nM"}]}
{"smiles": "CCNCCC(OCc1cccc(N2CCN(C)c3ccccc3C2=O)c1)c1ccccc1", "note": "(centres unmarked) [Example 43, 4-(3-((3-(Ethylamino)-1-phenylpropoxy)methyl)phenyl)-1-methyl-1,2,3,4-tetrahydro-5H-benzo[e][1,4]diazepin-5-one]", "values": [{"measurement": "Ki", "setting": "Table 1", "result": "100 to 500", "unit": "nM"}]}
{"smiles": "CNCCC(OCc1cccc(CN2CCN(C)c3ccccc3C2=O)c1)c1ccccc1", "note": "(centres unmarked) [Example 89, 1-Methyl-4-(3-((3-(methylamino)-1-phenylpropoxy)methyl)benzyl)-1,2,3,4-tetrahydro-5H-benzo[e][1,4]diazepin-5-one]", "values": [{"measurement": "Ki", "setting": "Table 1", "result": "> 3000", "unit": "nM"}]}
{"smiles": "CNCC[C@H](OCc1cccc(N2CCN(C)c3ccccc3C2=O)c1)c1cccc(F)c1", "note": "[Example 42, (S)-4-(3-((1-(3-fluorophenyl)-3-(methylamino)propoxy)methyl)phenyl)methyl-1 2,3,4-tetrahydro-5H-benzo[e][1,4]diazepin-5-one]", "values": [{"measurement": "Ki", "setting": "Table 1", "result": "500 to 3000", "unit": "nM"}]}
{"smiles": "CNCCC(Oc1cccc(N2CCN(C)c3ccccc3C2)c1)c1cccs1", "note": "(centres unmarked) [Example 9, N-methyl-3-(3-(1-methyl-1,2,3,5-tetrahydro-4H-benzo[e][1,4]diazepin-4-yl)phenoxy)-3-(thiophen-2-yl)propan-1-amine]", "values": [{"measurement": "Ki", "setting": "Table 1", "result": "> 3000", "unit": "nM"}]}
{"smiles": "CNCCC(Oc1cccc(N2CCCCCC2=O)c1)c1ccccc1", "note": "(centres unmarked) [Example 33, 1-(3-(3-(Methylamino)-1-phenylpropoxy)phenyl)azapan-2-one]", "values": [{"measurement": "Ki", "setting": "Table 1", "result": "> 3000", "unit": "nM"}]}
{"smiles": "CNCCC(Oc1ccc(CN2CCCN(C)CC2)cc1)c1cccs1", "note": "(centres unmarked) [Example 102, N-methyl-3-(4-((4-methyl-1,4-diazepan-1-yl)methyl)phenoxy)-3-(thiophen-2-yl)propan-1-amine]", "values": [{"measurement": "Ki", "setting": "Table 1", "result": "> 3000", "unit": "nM"}]}
{"smiles": "CNCCC(OCc1ccc(CN2CCN(C)c3ccccc3C2=O)cc1)c1ccccc1", "note": "(centres unmarked) [Example 88, 1-Methyl-4-(4-((3-(methylamino)-1-phenylpropoxy)methyl)benzyl)-1,2,3,4-tetrahydro-5H-benzo[e][1,4]diazepin-5-one]", "values": [{"measurement": "Ki", "setting": "Table 1", "result": "> 3000", "unit": "nM"}]}
{"smiles": "CNCC[C@H](Oc1ccc(CN2CCN(C)c3ncccc3C2=O)c(C2CC2)c1)c1cccs1", "note": "[Example 128, (S)-4-(2-cyclopropyl-4-(3-(methylamino)-1-(thiophen-2-yl)propoxy)benzyl)-1-methyl-1,2,3,4-tetrahydro-5H-pyrido[2,3-e][1,4]diazepin-5-one]", "values": [{"measurement": "Ki", "setting": "Table 1", "result": "100 to 500", "unit": "nM"}]}
{"smiles": "CNCCC(Oc1cccc(N2CCN(C)c3cnccc3C2=O)c1)c1cccs1", "note": "(centres unmarked) [Example 73, 1-Methyl-4-(3-(3-(methylamino)-1-(thiophen-2-yl)propoxy)phenyl)-1.2,3,4-tetrahydro-5H-pyrido[3,4-e][1,4]diazepin-5-one]", "values": [{"measurement": "Ki", "setting": "Table 1", "result": "100 to 500", "unit": "nM"}]}
{"smiles": "CCN[C@@H]1CCCCN(c2cccc(O[C@@H](CCNC)c3cccs3)c2)C1=O", "note": "[Example 18, (R)-3-(ethylamino)-1-(3-((S)-3-(methylamino)-1-(thiophen-2-yl)propoxy)phenyl)azepan-2-one]", "values": [{"measurement": "Ki", "setting": "Table 1", "result": "500 to 3000", "unit": "nM"}]}
{"smiles": "CNCCC(Oc1cccc(C(=O)N2CCCN(C)CC2)c1)c1cccs1", "note": "(centres unmarked) [Example 2, (4-Methyl-1,4-diazepan-1-yl)(3-(3-(methylamino)-1-(thiophen-2-yl)propoxy)phenyl)methanone]", "values": [{"measurement": "Ki", "setting": "Table 1", "result": "500 to 3000", "unit": "nM"}]}
{"smiles": "CNCCC(OCc1cccc(N2CCCN(C)CC2=O)c1)c1ccccc1", "note": "(centres unmarked) [Example 36, 4-Methyl-1-(3-((3-(methylamino)-1-phenylpropoxy)methyl)phenyl)-1,4-diazepan-2-one]", "values": [{"measurement": "Ki", "setting": "Table 1", "result": "500 to 3000", "unit": "nM"}]}
{"smiles": "CNCC[C@H](OCc1cccc(N2CCCN(C)CC2)c1)c1ccccc1", "note": "[Example 12, (S)-N-methyl-3-((3-(4-methyl-1,4-diazepan-1-yl)benzyl)oxy)-3-phenylpropan-1-amine]", "values": [{"measurement": "Ki", "setting": "Table 1", "result": "> 3000", "unit": "nM"}]}
{"smiles": "CCNCC(=O)N1CCC(=O)N(c2cccc(OC(CCNC)c3cccs3)c2)CC1", "note": "(centres unmarked) [Example 68, 1-(Ethylglycyl)-4-(3-(3-(methylamino)-1-(thiophen-2-yl)propoxy)phenyl)-1,4-diazepan-5-one]", "values": [{"measurement": "Ki", "setting": "Table 1", "result": "500 to 3000", "unit": "nM"}]}
